≈ marks a conversion by molar mass, not a printed value.
Experiments:
HSV-1 = experiment: HSV Antiviral (ELISA) Assay in Vero cells; type: cell-based, herpes simplex virus type 1; settings: HSV-1, Vero cells; for IC50: Human alphaherpesvirus 1, read-out: IC50 (ug/ml) HSV
Procedure, shortened: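 Viral replication was quantified by cell-fixed ELISA for HSV glycoprotein D, using a β-galactosidase reporter and fluorogenic umbelliferyl substrate, about 24 h after HSV-1 infection (MOI 0.006) of Vero cells. Compounds, at several concentrations, were added 30 min pre-infection. IC50 was derived from fluorescence relative to the compound-free signal.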

[1] = tested on: HCMV recombinant mutant virus (RV145); experiment: microbe, parasite or virus in culture; type: cell-based, human cytomegalovirus; settings: for IC50: Human betaherpesvirus 5, read-out: IC50 ug/ml HCMV, HCMV
Source text: Microtiter plate assay. Ninety-six well plate cultures of human foreskin fibroblasts are infected in the presence of inhibitor compound with a HCMV recombinant mutant virus whose genome contains the prokaryotic beta-glucuronidase gene (Jefferson, R. A., S. M. Burgess, and D. Hirsh. 1986. Beta-glucuronidase from Escherichia coli as a gene fusion marker. Proc. Natl. Acad. Sci. USA 83:8447-8451) whose expression is controlled by a viral promoter. An example of such a virus is RV145 (Jones, T. R., V. P. Muzithras, and Y. Gluzman. 1991. Replacement mutagenesis of the human cytomegalovirus genome: US10 and US11 gene products are nonessential. J. Virol. 65:5860-5872). Since it is under the control of a viral promoter, beta-glucuronidase expression is an indirect indicator of growth and replication of HCMV in this assay. At 96 hours post-infection, the infected cell lysates are prepared (using 50 mM sodium phosphate [pH7.0]containing 0.1% Triton X-100 and 0.1% sarkosyl) and assayed for beta-glucuronidase activity using a substrate for the enzyme which when cleaved yields either a product which can be measured […] in a spectrophotometer or fluorescently in a microfluorimeter. Examples of such substrates are p-nitrophenyl-beta-D-glucuronide and methylumbelliferylglucuronide, respectively. The presence of an antiviral compound is indicated by the reduced expression of the HCMV genome resident beta-glucuronidase gene, compared to the absence of inhibitor. […] Data from this assay generated using varying amounts of inhibitor compound is also used to estimate the IC50 of an inhibitor compound.

VZV strain Ellen = experiment: VZV Antiviral (ELISA) Assay in human foreskin fibroblast cells; type: cell-based, varicella-zoster virus; settings: for IC50: read-out: IC50 (ug/ml) VZV
Procedure, shortened: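 First, fibroblasts are infected at multiplicity below 0.1 and kept overnight. The harvested cell mixture then goes onto compound-containing wells for three days at 37° C. Finally, cells are fixed and viral gpII is measured by fluorogenic ELISA.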

[2] = Human alphaherpesvirus 3, Fibroblast

COc1cc(OC)c(NC(=S)Nc2ccc(NC(=O)c3ccccc3F)c(C(=O)c3ccccc3)c2)cc1Cl [Example 293]
IC50 (ug/ml) HSV (HSV-1): >50 µg/mL
IC50 ug/ml HCMV [1]: >10 µg/mL
IC50 (ug/ml) VZV (VZV strain Ellen): >10 µg/mL
% inhibition 10 ug/ml VZV (VZV strain Ellen): 2%

COc1cccc(C(=O)Nc2ccc(NC(=S)NC(C)c3ccc(F)cc3)cc2)c1 (stereo not shown) [Example 753]
IC50 (ug/ml) HSV (HSV-1): >10 µg/mL
IC50 ug/ml HCMV [1]: >0.5 µg/mL
IC50 (ug/ml) VZV (VZV strain Ellen): >7.5 µg/mL

CC(O)c1cccc(NC(=S)Nc2ccc(NC(=O)c3ccccc3F)cc2)c1 (stereo not shown) [Example 448]
IC50 (ug/ml) HSV (HSV-1): >10 µg/mL
IC50 ug/ml HCMV [1]: 9 µg/mL (≈ 22 µM)
IC50 (ug/ml) VZV (VZV strain Ellen): >10 µg/mL
% inhibition 10 ug/ml VZV (VZV strain Ellen): 0%

CC(NC(=S)Nc1ccc(NC(=O)c2ccccc2C(F)(F)F)cc1)c1cc2ccccc2o1 (stereo not shown) [Example 974, N-{4-[3-(1-Benzofuran-2-yl-ethyl)-thioureido]-phenyl}-2-trifluoromethyl-benzamide]
IC50 (HSV-1): > 10 µg/mL
IC50 [1]: > 10 µg/mL
IC50 (VZV strain Ellen; [2]): > 7.5 µg/mL

CC(NC(=S)Nc1ccc(NC(=O)c2cc3ccccc3o2)cc1)c1cc2ccccc2o1 (stereo not shown) [Example 981, Benzofuran-2-carboxylic acid {4-[3-(1-benzofuran-2-yl-ethyl)-thioureido]-phenyl}-amide]
IC50 (HSV-1): > 10 µg/mL
IC50 [1]: > 10 µg/mL
IC50 (VZV strain Ellen; [2]): 0.2 µg/mL (≈ 0.439 µM)

CC(NC(=S)Nc1ccc(NC(=O)c2ccccc2F)cc1)c1ccccc1C(F)(F)F (stereo not shown) [Example 785]
IC50 (HSV-1): > 10 µg/mL
IC50 [1]: > 2.2 µg/mL
IC50 (VZV strain Ellen; [2]): > 7.5 µg/mL

CCOc1ccc(NC(=S)Nc2ccc(NC(=O)c3ccccc3F)cc2)cc1Cl [Example 806]
IC50 (ug/ml) HSV (HSV-1): >10 µg/mL
IC50 ug/ml HCMV [1]: >10 µg/mL
IC50 (ug/ml) VZV (VZV strain Ellen): >7.5 µg/mL

CC(NC(=S)Nc1ccc(NC(=O)c2cc3ccccc3o2)cc1)c1ccc(F)cc1 (stereo not shown) [Example 980, Benzofuran-2-carboxylic acid (4-{3-[1-(4-fluoro-phenyl)-ethyl]-thioureido}-phenyl)-amide]
IC50 (HSV-1): > 10 µg/mL
IC50 [1]: > 10 µg/mL
IC50 (VZV strain Ellen; [2]): 0.15 µg/mL (≈ 0.346 µM)

COc1ccc(C(=O)Nc2ccc(NC(=S)Nc3cc(Cl)c(OC)cc3OC)cc2)cc1 [Example 121]
IC50 (ug/ml) HSV (HSV-1): 0.3 µg/mL (≈ 0.636 µM)
IC50 ug/ml HCMV [1]: 6 µg/mL (≈ 12.7 µM)
IC50 (ug/ml) VZV (VZV strain Ellen): >10 µg/mL
% inhibition 10 ug/ml VZV (VZV strain Ellen): 0%

CN(C)c1cc(Cl)cc(NC(=S)Nc2ccc(NC(=O)c3ccccc3F)cc2)c1 [Example 523]
IC50 (ug/ml) HSV (HSV-1): 0.6 µg/mL (≈ 1.35 µM)
IC50 ug/ml HCMV [1]: 3.2 µg/mL (≈ 7.22 µM)
IC50 (ug/ml) VZV (VZV strain Ellen): 4 µg/mL (≈ 9.03 µM)
% inhibition 10 ug/ml VZV (VZV strain Ellen): 75%

COc1cc(OC)c(NC(=S)Nc2ccc(NC(=O)c3cccc(OCC(=O)O)c3)cc2)cc1Cl [Example 222]
IC50 (ug/ml) HSV (HSV-1): >50 µg/mL
IC50 ug/ml HCMV [1]: >50 µg/mL
IC50 (ug/ml) VZV (VZV strain Ellen): >10 µg/mL
% inhibition 10 ug/ml VZV (VZV strain Ellen): 17%

CC(NC(=S)Nc1ccc(NC(=O)c2ccccc2F)cc1)c1cc2ccccc2o1 (stereo not shown) [Example 1002, N-{4-[3-(1-Benzofuran-2-yl-ethyl)-thioureid]-phenyl}-2-fluoro-benzamide]
IC50 (ug/ml) HSV (HSV-1): >10 µg/mL
IC50 ug/ml HCMV [1]: 2.1 µg/mL (≈ 4.84 µM)
IC50 (ug/ml) VZV (VZV strain Ellen): 0.08 µg/mL (≈ 0.185 µM)

COc1cccc(C(=O)Nc2ccc(NC(=S)Nc3ccc(N(C)C4CCCCC4)c(Cl)c3)cc2)c1 [Example 250]
IC50 (ug/ml) HSV (HSV-1): >10 µg/mL
IC50 ug/ml HCMV [1]: >10 µg/mL
IC50 (ug/ml) VZV (VZV strain Ellen): >10 µg/mL
% inhibition 10 ug/ml VZV (VZV strain Ellen): 42%

O=C(Nc1ccc(NC(=S)NCc2cc(C(F)(F)F)cc(C(F)(F)F)c2)cc1)c1ccccc1F [Example 543]
IC50 (ug/ml) HSV (HSV-1): >10 µg/mL
IC50 ug/ml HCMV [1]: 0.3 µg/mL (≈ 0.582 µM)
IC50 (ug/ml) VZV (VZV strain Ellen): >10 µg/mL

CN(C)CC(=O)Nc1ccc(NC(=S)Nc2ccc(NC(=O)c3ccccc3F)cc2)cc1Cl [Example 362]
IC50 (ug/ml) HSV (HSV-1): >10 µg/mL
IC50 ug/ml HCMV [1]: >10 µg/mL
IC50 (ug/ml) VZV (VZV strain Ellen): >10 µg/mL
% inhibition 10 ug/ml VZV (VZV strain Ellen): 8%

CCCCN(C)c1cc(NC(=S)Nc2ccc(NC(=O)c3ccccc3F)cc2)cc(C(F)(F)F)c1 [Example 598]
IC50 (ug/ml) HSV (HSV-1): >10 µg/mL
IC50 ug/ml HCMV [1]: >10 µg/mL
IC50 (ug/ml) VZV (VZV strain Ellen): >10 µg/mL

CCCCOc1cccc(C(=O)Nc2ccc(NC(=S)Nc3cc(Cl)c(OC)cc3OC)cc2)c1 [Example 219]
IC50 (ug/ml) HSV (HSV-1): 2.5 µg/mL (≈ 4.86 µM)
IC50 ug/ml HCMV [1]: >10 µg/mL
IC50 (ug/ml) VZV (VZV strain Ellen): >10 µg/mL
% inhibition 10 ug/ml VZV (VZV strain Ellen): 30%

COc1cc(OC)c(NC(=S)Nc2ccc(NC(=O)c3c(F)cccc3F)cc2)cc1Cl [Example 140]
IC50 (ug/ml) HSV (HSV-1): 0.15 µg/mL (≈ 0.314 µM)
IC50 ug/ml HCMV [1]: 4 µg/mL (≈ 8.37 µM)
IC50 (ug/ml) VZV (VZV strain Ellen): 10 µg/mL (≈ 20.9 µM)
% inhibition 10 ug/ml VZV (VZV strain Ellen): 65%

O=C(Nc1ccc(NC(=S)Nc2ccc(Cl)c(C(F)(F)F)c2)cc1)c1ccccc1F [Example 244]
IC50 (ug/ml) HSV (HSV-1): >10 µg/mL
IC50 ug/ml HCMV [1]: >10 µg/mL
IC50 (ug/ml) VZV (VZV strain Ellen): >10 µg/mL
% inhibition 10 ug/ml VZV (VZV strain Ellen): 18%

COc1cc(OC)c(NC(=S)Nc2ccc(NC(=O)c3ccccc3O)cc2)cc1Cl [Example 139]
IC50 (ug/ml) HSV (HSV-1): 6 µg/mL (≈ 13.1 µM)
IC50 ug/ml HCMV [1]: 6 µg/mL (≈ 13.1 µM)
IC50 (ug/ml) VZV (VZV strain Ellen): 4 µg/mL (≈ 8.73 µM)
% inhibition 10 ug/ml VZV (VZV strain Ellen): 95%

O=C(Nc1ccc(NC(=S)Nc2ccccc2)cc1)c1ccccc1F [Example 859, 2-Fluoro-N-[4-(3-phenyl-thioureido)-phenyl]-benzamide]
IC50 (HSV-1): > 10 µg/mL
IC50 [1]: > 10 µg/mL
inhibition at 10 µg/mL (VZV strain Ellen; Human alphaherpesvirus 3, Fibroblast, read-out: % inhibition 10 ug/ml VZV, 10 ug/ml): 20%
IC50 (VZV strain Ellen; [2]): > 10 µg/mL

O=C(CN1CCCCC1)Nc1ccc(NC(=S)Nc2ccc(NC(=O)c3ccccc3F)cc2)cc1Cl [Example 364]
IC50 (ug/ml) HSV (HSV-1): >10 µg/mL
IC50 ug/ml HCMV [1]: >10 µg/mL
IC50 (ug/ml) VZV (VZV strain Ellen): >15 µg/mL
% inhibition 10 ug/ml VZV (VZV strain Ellen): 73%

O=C(Nc1ccc(NC(=S)NCc2ccc(F)c(Cl)c2)cc1)c1ccccc1F [Example 677]
IC50 (ug/ml) HSV (HSV-1): >10 µg/mL
IC50 ug/ml HCMV [1]: >0.5 µg/mL

O=C(Nc1ccc(NC(=S)Nc2ccc(Cl)cc2)cc1)c1ccccc1F [Example 946, N-{4-[3-(4-Chloro-phenyl)-thioureido]-phenyl}-2-fluoro-benzamide]
IC50 (HSV-1): > 10 µg/mL
IC50 [1]: > 10 µg/mL

O=C(Nc1ccc(NC(=S)NC(c2ccccc2)c2ccc(F)cc2)cc1)c1ccccc1F (stereo not shown) [Example 772]
IC50 (ug/ml) HSV (HSV-1): >10 µg/mL
IC50 ug/ml HCMV [1]: 0.35 µg/mL (≈ 0.739 µM)

O=C(Nc1ccc(NC(=S)NCCSc2ccccc2)cc1)c1ccccc1F [Example 656]
IC50 (ug/ml) HSV (HSV-1): 5 µg/mL (≈ 11.7 µM)
IC50 ug/ml HCMV [1]: >0.5 µg/mL

O=C(Nc1ccc(NC(=S)NCCOc2ccc(Br)cc2)cc1)c1ccccc1F [Example 695]
IC50 (ug/ml) HSV (HSV-1): >10 µg/mL
IC50 ug/ml HCMV [1]: >3 µg/mL

O=C(Nc1ccc(NC(=S)NCc2ccc(F)c(F)c2)cc1)c1ccccc1F [Example 672]
IC50 (HSV-1): > 10 µg/mL
IC50 [1]: > 0.5 µg/mL

O=C(Nc1ccc(NC(=S)NCCc2ccc(Cl)c(Cl)c2)cc1)c1ccccc1F [Example 719]
IC50 (ug/ml) HSV (HSV-1): >10 µg/mL
IC50 ug/ml HCMV [1]: >0.5 µg/mL

O=C(Nc1ccc(NC(=S)NCc2cccc(I)c2)cc1)c1ccccc1F [Example 661]
IC50 (HSV-1): > 10 µg/mL
IC50 [1]: > 0.5 µg/mL

COc1ccccc1C(=O)Nc1ccc(NC(=S)NC(C)c2ccc(F)cc2)cc1 (stereo not shown) [Example 752]
IC50 (ug/ml) HSV (HSV-1): >10 µg/mL
IC50 ug/ml HCMV [1]: >0.5 µg/mL

Source: patent publication US6462055B2, “Alpha-methylbenzyl-containing thiourea inhibitors of herpes viruses containing a phenylenediamine group” (Wyeth, priority 1998, dated 2002)
